{"source": "patent US20210196737A1", "about": "“USE OF TREZASTILBENOSIDE IN MANUFACTURE OF PRODUCT FOR TREATING AND/OR PREVENTING NON-ALCOHOLIC FATTY LIVER DISEASE” (KPC PHARMACEUTICALS, INC., priority 2019, published 2021)", "key": {"[1]": {"system": "non-alcoholic fatty liver disease (NAFLD) model mice", "assay": "Levels of serum TC, TG, HDL, LDL, AST and ALT in NAFLD model mice", "assay_type": "in vivo, C57BL/6 mice", "conditions": "x ± s, n=10", "excerpt": "(§1) After 1 week of adaptive feeding, 44 C57 mice were divided into a control group (12 mice) and a model group (32 mice) according to the random number method. The normal control group was given ordinary diet, and the model group was given high-sugar and high-fat diet. After feeding for 8 weeks, randomly select 2 animals in each of the control group and the model group. After pathological examination confirmed that the modeling was successful, the model animals were divided into groups.\n(§2) The model animals were divided according to random number method into 3 groups of 10 mice each, namely model control group (equal volume of sodium chloride injection solution), Trezastilbenoside high dose group (20 mg/kg) and Trezastilbenoside low dose group (10 mg/kg). The mice in each administration group were administered intragastrically with the corresponding drug, once a day continuously for 4 weeks, while being fed with the high-sugar and high-fat feed continuously. The mice in the normal control group (equal volume of sodium chloride injection solution) were feed with the ordinary feed.\nAbout 1 mL of blood, taken via mouse eyeballs, was placed into a 1.5 mL centrifuge tube, and then centrifuged at 3000 r/min for 10 min to obtain the supernatant. The levels of TC, TG, HDL, LDL, AST and ALT in the serum were measured with a microplate reader strictly under the operating instructions of the assay kit."}, "[2]": {"conditions": "safety research mentioned in background; cited from earlier work"}, "[3]": {"conditions": "safety research mentioned in background; cited from earlier work", "remark": "listed apart in the source"}, "[4]": {"system": "non-alcoholic fatty liver disease (NAFLD) model mice", "assay": "Gross observation and HE staining of liver of NAFLD model mice", "assay_type": "in vivo, C57BL/6 mice", "excerpt": "as §1, §2\nThe fresh liver tissue was immersed and fixed in 4% formaldehyde solution overnight for 24 h, dehydrated through 75%-95%-100% ethanol gradient, embedded in paraffin, sectioned into 4 μm, and conventionally stained with hematoxylin-eosin, to observe the pathological changes of the liver tissue under an optical microscope (HE, 200×)."}, "[5]": {"system": "non-alcoholic fatty liver disease (NAFLD) model mice", "assay": "Body weight, wet liver weight and liver index in high-sugar high-fat diet NAFLD model mice", "assay_type": "in vivo, C57BL/6 mice", "conditions": "for Weight: high-sugar high-fat feed; for Weight / Wet liver weight: mean ± s, n=10", "excerpt": "as §1, §2\nAfter the last administration, the mice were fasted but had access to water for 12 h, and then sacrificed after blood was taken. The body mass and liver mass of each mouse were weighed to calculate the liver index by the following formula.\nliver index=(liver wet mass/body mass)×100% (wet liver mass/body mass)."}, "[6]": {"system": "non-alcoholic fatty liver disease (NAFLD) model mice", "assay": "TC and TG content in liver tissue of NAFLD model mice", "assay_type": "in vivo, C57BL/6 mice", "excerpt": "as §1, §2\nAbout 100 mg of liver tissue weighed, was put into 900 μL absolute ethanol to make a 10% tissue homogenate under an ice bath. Then the supernatant was separated out through a centrifugation separation at 3000 r/min for 15 min, and collected into a 1.5 mL centrifuge tube for the measurement of TC and TG content in the liver tissue."}, "[7]": {"conditions": "high dose 20 mg/kg intragastric 4 weeks"}, "[8]": {"conditions": "low dose 10 mg/kg intragastric 4 weeks"}, "[9]": {"conditions": "HE, 200x, Trezastilbenoside group"}, "[10]": {"conditions": "high dose 20 mg/kg intragastric once a day for 4 weeks"}, "[11]": {"conditions": "low dose 10 mg/kg intragastric once a day for 4 weeks"}}}
{"smiles": "OC[C@H]1O[C@@H](Oc2cc(/C=C/c3cc(O)cc(O)c3)ccc2O)[C@H](O)[C@@H](O)[C@@H]1O", "note": "[Trezastilbenoside]", "values": [{"measurement": "ALT (U/L)", "setting": "[1]; [7]", "value": "78.30 ± 11.53", "unit": "U/L"}, {"measurement": "AST (U/L)", "setting": "[1]; [7]", "value": "118.92 ± 10.75", "unit": "U/L"}, {"measurement": "HDL", "setting": "[1]; [7]", "value": "0.45 ± 0.16", "unit": "mmol/L"}, {"measurement": "LDL", "setting": "[1]; [7]", "value": "0.41 ± 0.30", "unit": "mmol/L"}, {"measurement": "TC", "setting": "[1]; [7]", "value": "3.43 ± 0.17", "unit": "mmol/L"}, {"measurement": "TG", "setting": "[1]; [7]", "value": "0.99 ± 0.11", "unit": "mmol/L"}, {"measurement": "ALT (U/L)", "setting": "[1]; [8]", "value": "122.45 ± 27.37", "unit": "U/L"}, {"measurement": "AST (U/L)", "setting": "[1]; [8]", "value": "147.73 ± 52.98", "unit": "U/L"}, {"measurement": "HDL", "setting": "[1]; [8]", "value": "0.27 ± 0.67", "unit": "mmol/L"}, {"measurement": "LDL", "setting": "[1]; [8]", "value": "0.47 ± 0.13", "unit": "mmol/L"}, {"measurement": "TC", "setting": "[1]; [8]", "value": "5.53 ± 0.52", "unit": "mmol/L"}, {"measurement": "TG", "setting": "[1]; [8]", "value": "2.67 ± 0.19", "unit": "mmol/L"}, {"measurement": "Chromosome aberrations or mutagenesis in the genetic test", "setting": "[2]", "value": "no chromosome aberrations or mutagenesis were found"}, {"measurement": "Toxic side reactions and death in acute toxicity tests", "setting": "[3]", "value": "no toxic side reactions and death occurred"}, {"measurement": "HE observation of mouse liver: fat droplets and pathological morphology, compared with the model group", "setting": "[4]; [9]", "value": "smaller and fewer, the pathological morphology of liver tissue was significantly improved"}, {"measurement": "HE observation of mouse liver: infiltration of inflammatory cells", "setting": "[4]; [9]", "value": "the infiltration of inflammatory cells was not obvious"}, {"measurement": "Gross observation of mouse liver: colour, texture and shape", "setting": "[4]; low and high dose groups (10 and 20 mg/kg)", "value": "between the normal control group and the model group, and the texture and shape tended to be normal"}, {"measurement": "Obesity induced by high sugar and high fat, compared with the model group", "setting": "[5]; Trezastilbenoside administration group, 4 weeks intragastric", "value": "has a tendency to reduce the obesity induced by high sugar and high fat in mice"}, {"measurement": "Weight", "setting": "[5]; [10]", "value": "33.8 ± 0.74", "unit": "g"}, {"measurement": "Liver index (%)", "setting": "[5]; high dose 20 mg/kg intragastric once a day for 4 weeks, liver wet mass/body mass x 100%", "value": "0.51 ± 0.05", "unit": "%"}, {"measurement": "Wet liver weight", "setting": "[5]; [10]", "value": "1.72 ± 2.7", "unit": "g"}, {"measurement": "Weight", "setting": "[5]; [11]", "value": "35.0 ± 0.62", "unit": "g"}, {"measurement": "Wet liver weight", "setting": "[5]; [11]", "value": "1.84 ± 3.0", "unit": "g"}, {"measurement": "TC", "setting": "[6]; [7]", "value": "4.23 ± 0.87", "unit": "mg/g"}, {"measurement": "TG", "setting": "[6]; [7]", "value": "1.96 ± 0.99", "unit": "mg/g"}, {"measurement": "TC", "setting": "[6]; [8]", "value": "6.53 ± 0.59", "unit": "mg/g"}, {"measurement": "TG", "setting": "[6]; [8]", "value": "2.12 ± 0.58", "unit": "mg/g"}]}
